These results are taken from patent US11696924B2, “Combination therapy using PDK1 and PI3K inhibitors” (MEMORIAL SLOAN-KETTERING CANCER CENTER, priority 2015, dated 2023).

Series [1] deals with mTORC1. Briefly: Western blot of mTORC1 signaling (pS6K, pS6, p4EBP1). Format: cell-based. As to conditions: for sustained S6 phosphorylation: HCC1954 cells, presence or absence of BYL719 (1 μM). In general terms: Immunoblotting shows a protein as a band on a membrane.
Description: (§2) For western blot analysis proteins were extracted in RIPA buffer supplemented with protease and phosphatase inhibitors (Roche). Protein lysates were separated using SDS-PAGE gels and transferred to a PVDF membrane. Then, membranes were probed using specific antibodies. PDK1, pAKT (S473), pAKT (T308), pS6K (T389), pS6 (S240/4), pS6 (235/6), p4EBP1 (S65), PARP, Actin, pRSK (S227), cleaved Caspase 3, pFOXO1/3 (T24/T32), SGK1, SGK2, SGK3, pNDRG1 (T346), NDRG1, Flag, HA, and phospho-RXRXX(S/T) (SEQ ID NO: 1) were from Cell Signaling Technology (CST).
In series [2] the target is SGK3 (Homo sapiens, UniProt Q96BR1). Briefly: in vitro SGK3 kinase activity assay. It counts as biochemical.
SGK3, sequence (Q96BR1 whole entry): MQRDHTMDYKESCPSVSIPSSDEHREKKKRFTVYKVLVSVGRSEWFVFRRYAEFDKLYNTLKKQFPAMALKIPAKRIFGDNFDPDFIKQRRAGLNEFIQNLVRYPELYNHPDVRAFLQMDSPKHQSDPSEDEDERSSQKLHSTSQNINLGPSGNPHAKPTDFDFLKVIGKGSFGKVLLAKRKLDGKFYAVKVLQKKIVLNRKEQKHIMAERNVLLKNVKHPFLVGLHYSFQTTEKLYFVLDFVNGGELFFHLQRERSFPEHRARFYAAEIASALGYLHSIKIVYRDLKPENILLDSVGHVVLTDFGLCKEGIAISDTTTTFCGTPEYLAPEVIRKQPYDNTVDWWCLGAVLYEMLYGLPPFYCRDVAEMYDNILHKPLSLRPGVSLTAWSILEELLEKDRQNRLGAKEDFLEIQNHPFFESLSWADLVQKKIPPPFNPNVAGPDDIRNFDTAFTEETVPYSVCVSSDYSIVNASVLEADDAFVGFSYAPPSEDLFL
Series [3] has as its target S6K1. The experiment in a line: recombinant in vitro kinase assay of S6K ([…] peptide substrate). It counts as biochemical.
Series [4] deals with mTOR (Homo sapiens, UniProt P42345). To be noted: read-out: IC50, mTOR; 4EBP1 as substrate.
The subject of series [5] is HCC1954 xenografts. The experiment in a line: HCC1954 in vivo xenograft. Details: species or system mice. To be noted: HCC1954 xenografts, end of the experiment. As for the experimental part: Animals were maintained and treated in accordance with Institutional Guidelines of Memorial Sloan Kettering Cancer Center (Protocol number 12-10-019). 5×10^6 cells in 1:1 PBS/Matrigel (Corning) were injected subcutaneously into six-week-old female athymic Foxn1^nu nude mice.
When tumors reached a volume of ˜150 mm^3 mice were randomized, treated, and tumors were measured twice a week during a month. At least 10 tumors per group were used in all the studies. […] Tumors were harvested at the end of the experiment three hours after the last dosage, fixed in 4% formaldehyde in PBS, and paraffin-embedded. […] Primary staining was followed by 60 minutes incubation with biotinylated goat anti-rabbit IgG (Vector labs) 1:200. Blocker D, Streptavidin-HRP and DAB detection kit (Ventana Medical Systems) were used according to the manufacturer instructions.

Series [6] deals with pNDRG1 (T346). The experiment in a line: Western blot of NDRG1 phosphorylation (T346). It counts as cell-based. As for the experimental part: A) SGK1 mRNA levels in breast cancer cell lines sensitive or resistant to BYL719 (n=27). B) SGK1 mRNA levels in PIK3CA-mutant breast cancer cell lines sensitive or resistant to BYL719. C) Western blot of SGK1, SGK2, SGK3 and phosphorylated NDRG1 in a panel of PIK3CA—mutant breast cancer cell lines sensitive or resistant to BYL719. D) Western blot for NDRG1 and phosphorylated NDRG1 (T346) in BYL719-sensitive and -resistant breast cancer cell lines treated with BYL719 (1 μM) for 4 h. […] P values are calculated using Student's t-test. Error bars are ±SEM.
A) Dose-response curves from MDA-MB-361 cells transduced with pLenti7.3-LacZ or pLenti7.3-SGK1 (Δ60, S422D) treated with increasing concentrations of BYL719 for 6 days. B) Western blot analysis of LacZ and SGK1 MDA-MB-361 cells treated with BYL719 (1 μM) for 4 h. […] The DFG motif amino acids are indicated (D240, F241, G242). […] Hydrogen bonds are shown as dotted lines. […] L) IHC analysis of tumors from K collected at the end of the experiment. M) Top panel: growth curves of HCC1954 cells stably expressing doxycycline-inducible control (REN) or SGK1 knockdown treated with increasing concentrations of BYL719 for 6 days. Bottom panel: Western blot analysis of GFP-sorted control (REN) and SGK1 shRNA cells treated with BYL719 (1 μM) for 4 h. P values are calculated using Student's t-test. Error bars are ±SEM.
(§1) Then, membranes were probed using specific antibodies.

Series [7] deals with SGK2 (Homo sapiens, UniProt Q9HBY8). Briefly: in vitro SGK2 kinase activity assay. Format: biochemical.
SGK2, sequence (Q9HBY8 whole entry): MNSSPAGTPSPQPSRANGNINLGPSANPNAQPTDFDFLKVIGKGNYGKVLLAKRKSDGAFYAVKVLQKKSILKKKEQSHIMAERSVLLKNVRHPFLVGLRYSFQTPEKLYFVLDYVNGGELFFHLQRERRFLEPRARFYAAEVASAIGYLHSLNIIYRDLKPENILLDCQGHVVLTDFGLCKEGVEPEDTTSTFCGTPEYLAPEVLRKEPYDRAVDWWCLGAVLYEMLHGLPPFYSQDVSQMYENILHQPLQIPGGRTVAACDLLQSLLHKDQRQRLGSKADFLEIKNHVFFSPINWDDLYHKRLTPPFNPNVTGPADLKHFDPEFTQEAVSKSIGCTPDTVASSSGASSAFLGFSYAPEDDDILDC
The target in series [8] is PDK1 (Homo sapiens, UniProt O15530). Briefly: selectivity screening, panel of 140 kinases. As to conditions: 1 μM.
PDK1, sequence (O15530 whole entry): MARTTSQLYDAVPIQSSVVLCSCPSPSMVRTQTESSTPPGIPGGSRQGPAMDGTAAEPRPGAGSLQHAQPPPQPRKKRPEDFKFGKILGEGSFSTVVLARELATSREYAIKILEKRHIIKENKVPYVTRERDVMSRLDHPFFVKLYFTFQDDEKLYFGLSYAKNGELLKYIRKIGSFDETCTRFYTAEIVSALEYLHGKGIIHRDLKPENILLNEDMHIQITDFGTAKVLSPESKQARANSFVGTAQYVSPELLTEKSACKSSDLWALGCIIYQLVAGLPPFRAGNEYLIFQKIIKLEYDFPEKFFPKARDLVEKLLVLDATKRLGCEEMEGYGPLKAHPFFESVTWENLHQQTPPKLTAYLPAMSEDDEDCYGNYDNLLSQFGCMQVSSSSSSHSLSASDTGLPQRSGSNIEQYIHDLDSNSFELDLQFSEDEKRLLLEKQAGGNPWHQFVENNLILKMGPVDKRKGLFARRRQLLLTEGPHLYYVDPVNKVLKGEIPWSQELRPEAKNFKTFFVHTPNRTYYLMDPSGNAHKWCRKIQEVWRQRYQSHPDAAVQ
Protocol: (§3) IC50 value is indicated. […] Recombinant GST-S6 was used as a substrate and phosphorylated S6 (S235/6) antibody was used for the detection of phosphorylated substrate by Western blot. IC50 value is indicated. […] Everolimus was used as a positive control at 200 nM. Error bars are ±SEM. […] Quantification of the m^7GTP-precipitated proteins is indicated in fold change. AZD8055 is used as a control at 1 μM). […] Error bars are ±SEM.
Series [9] deals with S6K signaling. As to conditions: up to 30 μM, 4 h, TSC2 KO mouse fibroblasts.
Protocol: (§4) Recombinant GST-S6 was used as a substrate and phosphorylated S6 (S235/6) antibody was used for the detection of phosphorylated substrate by Western blot. […] Everolimus was used as a positive control at 200 nM. Error bars are ±SEM. […] Quantification of the m^7GTP-precipitated proteins is indicated in fold change. AZD8055 is used as a control at 1 μM). […] Error bars are ±SEM.
as §2
Series [10] relates to S6K (ΔCT T389E). Briefly: S6K kinase assay in 293T cells overexpressing constitutively active S6K. Format: cell-based.
The subject of series [11] is PKC. Briefly: selectivity screening, panel of 140 kinases. As to conditions: 1 μM.
Protocol: as §3
For series [12], the target named is AKT1 (Homo sapiens, UniProt P31749). The experiment in a line: selectivity screening, panel of 140 kinases. As to conditions: 1 μM.
AKT1, sequence (P31749 whole entry): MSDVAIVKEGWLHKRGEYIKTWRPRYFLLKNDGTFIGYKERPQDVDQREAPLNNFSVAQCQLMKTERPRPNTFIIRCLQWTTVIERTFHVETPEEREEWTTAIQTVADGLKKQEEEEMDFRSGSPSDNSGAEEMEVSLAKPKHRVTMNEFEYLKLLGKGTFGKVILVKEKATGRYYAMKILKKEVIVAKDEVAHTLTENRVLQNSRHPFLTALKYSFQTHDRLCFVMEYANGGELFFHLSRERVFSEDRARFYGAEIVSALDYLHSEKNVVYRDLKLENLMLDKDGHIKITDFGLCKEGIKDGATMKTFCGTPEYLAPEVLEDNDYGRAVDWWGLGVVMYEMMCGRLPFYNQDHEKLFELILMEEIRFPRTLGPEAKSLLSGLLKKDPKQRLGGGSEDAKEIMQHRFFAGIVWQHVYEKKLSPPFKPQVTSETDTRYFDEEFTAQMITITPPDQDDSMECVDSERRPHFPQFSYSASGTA
Protocol: as §3
The test system of series [13] is RSK. The experiment in a line: selectivity screening, panel of 140 kinases. As to conditions: 1 μM.
Protocol: as §3
The target in series [14] is S6K (Homo sapiens, UniProt P23443). Briefly: selectivity screening, panel of 140 kinases. As to conditions: 1 μM.
S6K, sequence (P23443 whole entry): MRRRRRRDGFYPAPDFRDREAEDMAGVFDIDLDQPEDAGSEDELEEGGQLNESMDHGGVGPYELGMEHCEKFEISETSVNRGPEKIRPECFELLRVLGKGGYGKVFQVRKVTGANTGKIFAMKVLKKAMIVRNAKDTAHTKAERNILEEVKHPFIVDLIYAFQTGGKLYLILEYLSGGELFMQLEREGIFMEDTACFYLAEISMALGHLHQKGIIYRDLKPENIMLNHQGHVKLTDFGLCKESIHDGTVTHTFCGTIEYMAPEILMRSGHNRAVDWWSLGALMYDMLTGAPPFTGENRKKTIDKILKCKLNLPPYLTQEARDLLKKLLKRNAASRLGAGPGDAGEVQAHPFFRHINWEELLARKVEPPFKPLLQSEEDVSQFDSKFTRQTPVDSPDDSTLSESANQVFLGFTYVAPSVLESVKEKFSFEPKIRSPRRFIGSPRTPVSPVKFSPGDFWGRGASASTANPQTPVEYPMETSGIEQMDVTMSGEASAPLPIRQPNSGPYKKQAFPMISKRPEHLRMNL
Protocol: as §3
Series [15] has as its system S6K signaling. The experiment in a line: Western blot of S6K targets in fibroblasts of a TSC2-null lymphangioleiomyomatosis patient. To be noted: up to 30 μM, 4 h, TSC2-null LAM patient fibroblasts.
Protocol: as §4, §2
For series [16], the target named is SGK1 (Homo sapiens, UniProt O00141). The experiment in a line: ATP-competition assay. To be noted: ATP at 100, 250, 350 and 500 μM.
SGK1, sequence (O00141 whole entry): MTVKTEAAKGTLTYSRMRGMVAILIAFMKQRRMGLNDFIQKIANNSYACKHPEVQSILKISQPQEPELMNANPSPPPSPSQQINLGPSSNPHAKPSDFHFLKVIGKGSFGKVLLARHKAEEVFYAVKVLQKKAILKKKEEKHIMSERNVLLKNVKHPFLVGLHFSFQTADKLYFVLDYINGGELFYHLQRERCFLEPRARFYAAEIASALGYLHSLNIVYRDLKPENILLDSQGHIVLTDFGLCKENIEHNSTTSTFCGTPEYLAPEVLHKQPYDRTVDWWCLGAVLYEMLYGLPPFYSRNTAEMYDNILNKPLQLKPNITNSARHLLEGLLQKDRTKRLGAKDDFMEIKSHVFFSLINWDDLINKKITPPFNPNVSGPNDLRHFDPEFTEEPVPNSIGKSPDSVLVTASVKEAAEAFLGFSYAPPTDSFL
Description: Recombinant GST-S6 was used as a substrate and phosphorylated S6 (S235/6) antibody was used for the detection of phosphorylated substrate by Western blot.
Series [17] has as its system CaCO2 cells. To be noted: cited from earlier work.
Series [18] relates to TSC2 (S939). The experiment in a line: Western blot of phosphorylated TSC2 (S939). Format: cell-based. To be noted: HCC1954, PD0325901 1 μM, GSK1120212 50 nM, ± BYL719, 4 h.
For series [19], the system named is pRSK2 (S227). Briefly: Western blot of phosphorylated RSK2 (S227), PDK1 target. Format: cell-based. To be noted: HCC1954 and JIMT1, 1 μM. As for the experimental part:
A) Dose-response curves from HCC1954 or JIMT1 shGFP and shPDK1 cells treated with BYL719 for 6 days. […] Staurosporine is used as a positive control (1 μM; 4 h). E) HCC1954 shGFP and shPDK1 in vivo xenograft treated with Vehicle or BYL719 (n=10/arm). F) IHC analysis of tumors from E collected at the end of the experiment. […] Staurosporine is used as a positive control (1 μM, 4 h). […] L) IHC analysis of tumors from K collected at the end of the experiment. M, N) JIMT1 in vivo xenograft tested as described in (K) and (L) for HCC1954 in vivo xenograft. P values are calculated using Student's t-test. Error bars are ±SEM.
as §1

Entries after “also recorded” stand apart in the source; their conditions may differ. Like-named read-outs stand apart in the source and are kept apart here.

Consider `O=CC[C@@H](O)[C@H](O)[C@H](O)CO` [2-deoxyglucose], for which the “sustained S6 phosphorylation” value in series [1] is reported as “unable to rescue the sustained phosphorylation of S6”.
Broadly, the IC50 is the midpoint of a concentration-inhibition curve. With `Nc1n[nH]c2nc(-c3ccc(NS(=O)(=O)c4cccc(Cl)c4Cl)cc3)cnc12` [SGK1-inh], the IC50 in series [2] was 590 nM; in series [3] it was 33 nM; in [4], above 5000 nM; in series [7], 2.8 nM; in series [10] (293T cells, HA-S6K (ΔCT T389E), GST-S6 substrate, read-out: IC50, S6K at the cellular level), around 20000 nM. In addition, the “pS6 (S240/4) and 4EBP1 (T37/46) in tumors, IHC” value in series [5] is recorded as “remained elevated”. Besides, the “appropriate concentration to inhibit endogenous SGK1 (NDRG1 phosphorylation)” value in [6] (HCC1954 cells, 4 hours, in the presence of BYL719 (1 μM)) was determined as 10 µM. Moreover, the “activity against PDK1” value in series [8] is given as “no activity”. Besides, the “S6K signaling: pS6 (S235/6), pS6 (S240/4), pmTOR (S2448)” value in series [9] and in series [15] was “not able to reduce S6K signaling” each time. Further, in series [10] (conclusion from cellular S6K assays), the “concentrations below which there is no activity towards S6K” value is 20 to 30 µM. The “activity against PKC” value in [11] is recorded as “no activity”. In addition, the “activity against AKT1” value in series [12] is “no activity”. The “activity against RSK” value in series [13] is reported as “no activity”. Further, in series [1] (BYL719-resistant cells (HCC1954, JIMT1), 4 h, BYL719 1 μM, GSK2334470 1 μM, SGK1-inh 10 μM), the mTORC1 signaling result was “some activity towards S6K signaling”. Further, the “activity against S6K” value in series [14] is on record as “inhibited”. Besides, in series [16], the “effect of increasing ATP on potency” value is on record as “decreased the potency”. Besides, the permeability in series [17] was 13.3 ×10⁻⁶ cm/s.
In the case of `CC(=O)Nc1cccc(-n2c(=O)n(C3CC3)c(=O)c3c(Nc4ccc(I)cc4F)n(C)c(=O)c(C)c32)c1` [GSK1120212], the “TSC2 phosphorylation at S939 (or mTORC1 downstream signaling)” value in [18] is given as “did not detect changes in TSC2 phosphorylation at S939”.
Take `CNc1nc(-c2ccc3c(N)n[nH]c3c2)cc(N2C[C@@H](C(=O)NC3CCCCC3)CC[C@H]2C)n1` [GSK2334470]: the “pRSK2 (S227)” value in [19] is listed as “appreciably reduced; also recorded: inhibited when cells are treated with GSK2334470 alone or in combination”. Moreover, the “phosphorylation of FOXO3 and NDRG1, added to AZD8055” value in [6] (HCC1954, GSK2334470 1 μM plus AZD8055) was “marked decrease in the phosphorylation of both FOXO3 and NDRG1”.
For the molecule `O=C(NOC[C@H](O)CO)c1ccc(F)c(F)c1Nc1ccc(I)cc1F` [PD0325901], in series [18], the “TSC2 phosphorylation at S939 (or mTORC1 downstream signaling)” value was “did not detect changes in TSC2 phosphorylation at S939”.
On to `N#Cc1c(O)c2c(-c3ccc(-c4ccccc4O)cc3)csc2[nH]c1=O` [A769662], for which the “sustained S6 phosphorylation” value in series [1] is listed as “unable to rescue the sustained phosphorylation of S6”.
Take `COc1ccc(-c2ccc3c(N4CCOC[C@@H]4C)nc(N4CCOC[C@@H]4C)nc3n2)cc1CO` [AZD8055]: the “pFOXO3 (T32) and pNDRG1 (T346) levels” value in [6] (HCC1954, increasing concentrations, single agent) was “did not reduce the levels of the substrates pFOXO3 (T32) and pNDRG1 (T346)”.
